Assay results published in PubChem BioAssay AID1745844 (Carcinogenic Potency Database (CPDB), 2022).
Calls of active or inactive are those of the source. The rule behind the calls is not given here.

Test system: rodent lifetime carcinogenesis bioassay, tumor incidence TD50
Test: chronic cancer bioassays in animals – CPDB, compiled studies (AID 1745844)

SMILES: CCCCOC(=O)COc1ccc(Cl)cc1Cl
- carcinogen call (mouse, strain B6AKF1, females, oral dosing, site: any site (literature study), lesion: several types, types named in the paper, dosed 76 weeks, study length 76 weeks): negative (inactive)
- carcinogen call (mouse, strain B6AKF1, females, oral dosing, site: liver, lesion: hepatoma, dosed 76 weeks, study length 76 weeks): negative (inactive)
- carcinogen call (mouse, strain B6AKF1, females, oral dosing, site: lung, lesion: adenoma, dosed 76 weeks, study length 76 weeks): negative (inactive)
- carcinogen call (mouse, strain B6AKF1, males, oral dosing, site: any site (literature study), lesion: several types, types named in the paper, dosed 76 weeks, study length 76 weeks): negative (inactive)
- carcinogen call (mouse, strain B6AKF1, males, oral dosing, site: liver, lesion: hepatoma, dosed 76 weeks, study length 76 weeks): negative (inactive)
- carcinogen call (mouse, strain B6AKF1, males, oral dosing, site: lung, lesion: adenoma, dosed 76 weeks, study length 76 weeks): negative (inactive)
- TD50 (mouse, strain B6C3F1, females, oral dosing, site: any site (literature study), lesion: several types, types named in the paper, dosed 76 weeks, study length 76 weeks): 29.7 mg/kg/day (inactive)
- carcinogen call (mouse, strain B6C3F1, females, oral dosing, site: liver, lesion: hepatoma, dosed 76 weeks, study length 76 weeks): negative (inactive)
- carcinogen call (mouse, strain B6C3F1, females, oral dosing, site: lung, lesion: several types, types named in the paper, dosed 76 weeks, study length 76 weeks): negative (inactive)
- TD50 (mouse, strain B6C3F1, males, oral dosing, site: any site (literature study), lesion: several types, types named in the paper, dosed 76 weeks, study length 76 weeks): 38.1 mg/kg/day (inactive)
- TD50 (mouse, strain B6C3F1, males, oral dosing, site: liver, lesion: hepatoma, dosed 76 weeks, study length 76 weeks): 122 mg/kg/day (inactive)
- TD50 (mouse, strain B6C3F1, males, oral dosing, site: lung, lesion: adenoma, dosed 76 weeks, study length 76 weeks): 59 mg/kg/day (inactive)

SMILES: CC1CN(N=O)CC(C)N1C(=O)c1ccccc1 (configuration not stated)
- carcinogen call (rat, strain Fischer 344, females, in drinking water, site: any site (literature study), lesion: several types, types named in the paper, dosed 50 weeks, study length 125 weeks): positive
- TD50 (rat, strain Fischer 344, females, in drinking water, site: forestomach, lesion: basal-cell carcinoma, dosed 50 weeks, study length 125 weeks): 26.4 mg/kg/day
- TD50 (rat, strain Fischer 344, females, in drinking water, site: forestomach, lesion: papilloma, dosed 50 weeks, study length 125 weeks): 9.66 mg/kg/day
- TD50 (rat, strain Fischer 344, females, in drinking water, site: liver, lesion: one or several types, types not named, dosed 50 weeks, study length 125 weeks): 9.1 mg/kg/day

SMILES: CNN
- TD50 (hamster, strain Syrian Golden, females, in drinking water, site: cecum, lesion: polypoid adenoma, dosed 86 weeks, study length 86 weeks): 29.8 mg/kg/day
- TD50 (hamster, strain Syrian Golden, females, in drinking water, site: cecum, lesion: several types, types named in the paper, dosed 86 weeks, study length 86 weeks): 25.8 mg/kg/day
- TD50 (hamster, strain Syrian Golden, females, in drinking water, site: liver, lesion: histiocytoma, malignant, dosed 86 weeks, study length 86 weeks): 15.4 mg/kg/day
- TD50 (hamster, strain Syrian Golden, females, in drinking water, site: liver, lesion: several types, types named in the paper, dosed 86 weeks, study length 86 weeks): 30.8 mg/kg/day
- TD50 (hamster, strain Syrian Golden, females, in drinking water, site: lung, lesion: angiosarcoma, dosed 86 weeks, study length 86 weeks): 297 mg/kg/day (inactive)
- TD50 (hamster, strain Syrian Golden, males, in drinking water, site: cecum, lesion: polypoid adenoma, dosed 100 weeks, study length 100 weeks): 50.7 mg/kg/day
- TD50 (hamster, strain Syrian Golden, males, in drinking water, site: cecum, lesion: several types, types named in the paper, dosed 100 weeks, study length 100 weeks): 42.1 mg/kg/day
- TD50 (hamster, strain Syrian Golden, males, in drinking water, site: liver, lesion: histiocytoma, malignant, dosed 100 weeks, study length 100 weeks): 9.2 mg/kg/day
- carcinogen call (mouse, strain Swiss, females, by gavage, site: lung, lesion: one or several types, types not named, dosed 40 weeks, study length 55 weeks): negative (inactive)
- TD50 (mouse, strain Swiss, females, in drinking water, site: bile duct, lesion: cholangioma, dosed 62 weeks, study length 62 weeks): 29.2 mg/kg/day
- TD50 (mouse, strain Swiss, females, in drinking water, site: bile duct, lesion: several types, types named in the paper, dosed 62 weeks, study length 62 weeks): 24.6 mg/kg/day
- TD50 (mouse, strain Swiss, females, in drinking water, site: liver, lesion: hepatoma, dosed 62 weeks, study length 62 weeks): 51.1 mg/kg/day
- TD50 (mouse, strain Swiss, females, in drinking water, site: liver, lesion: several types, types named in the paper, dosed 113 weeks, study length 113 weeks): 47.2 mg/kg/day
- TD50 (mouse, strain Swiss, females, in drinking water, site: lung, lesion: adenocarcinoma, dosed 113 weeks, study length 113 weeks): 5.63 mg/kg/day
- TD50 (mouse, strain Swiss, females, in drinking water, site: lung, lesion: adenoma, dosed 62 weeks, study length 62 weeks): 19.6 mg/kg/day
- TD50 (mouse, strain Swiss, females, in drinking water, site: lung, lesion: adenoma, dosed 113 weeks, study length 113 weeks): 4.02 mg/kg/day
- TD50 (mouse, strain Swiss, females, in drinking water, site: lung, lesion: several types, types named in the paper, dosed 62 weeks, study length 62 weeks): 21.4 mg/kg/day
- TD50 (mouse, strain Swiss, females, in drinking water, site: lung, lesion: several types, types named in the paper, dosed 113 weeks, study length 113 weeks): 2.98 mg/kg/day
- TD50 (mouse, strain Swiss, males, in drinking water, site: all sites, lesion: malignant lymphoma, dosed 112 weeks, study length 112 weeks): 7.85 mg/kg/day
- TD50 (mouse, strain Swiss, males, in drinking water, site: bile duct, lesion: several types, types named in the paper, dosed 69 weeks, study length 69 weeks): 22.5 mg/kg/day
- TD50 (mouse, strain Swiss, males, in drinking water, site: liver, lesion: hepatoma, dosed 69 weeks, study length 69 weeks): 7.25 mg/kg/day
- TD50 (mouse, strain Swiss, males, in drinking water, site: liver, lesion: several types, types named in the paper, dosed 69 weeks, study length 69 weeks): 4.58 mg/kg/day
- TD50 (mouse, strain Swiss, males, in drinking water, site: lung, lesion: adenocarcinoma, dosed 112 weeks, study length 112 weeks): 12 mg/kg/day
- TD50 (mouse, strain Swiss, males, in drinking water, site: lung, lesion: adenoma, dosed 69 weeks, study length 69 weeks): 10.1 mg/kg/day
- TD50 (mouse, strain Swiss, males, in drinking water, site: lung, lesion: adenoma, dosed 112 weeks, study length 112 weeks): 2.93 mg/kg/day
- TD50 (mouse, strain Swiss, males, in drinking water, site: lung, lesion: several types, types named in the paper, dosed 112 weeks, study length 112 weeks): 2.51 mg/kg/day
